Results as given in paper PMC10353187, “Discovery of a new potent oxindole multi-kinase inhibitor among a series of designed 3-alkenyl-oxindoles with ancillary carbonic anhydrase inhibitory activity as antiproliferative agents” (BMC Chemistry, 2023).

Tests used:
SNB-75 = experiment: NCI-60 single-dose antiproliferative assay (SRB); assay type: cell-based; conditions: Homo sapiens; 10 μM single dose; SNB-75, CNS cancer; read-out: Cell Growth inhibition Percent
Description: (§1) From the newly synthesized compounds, eleven compounds (4c, 4d, 5, 9a, 9b, 11a, 11b, 13b, 13c, 15b, and 15c) were selected by the National Cancer Institute (NCI) Developmental Therapeutics Program (DTP), Bethesda, Maryland, USA for the in vitro anti-proliferative activity evaluation. The selected compounds were examined at 10 μM dose against the NCI 60-cell line panel. This panel consists of nine cell line groups of leukemia, non-small cell lung carcinoma (NSCLC), melanoma, colon, CNS, ovarian, renal, prostate, and breast cancers. The results are reported as mean-graph of the percent growth relative to control and presented as percentage growth inhibition (GI%), furthermore, mean GI% of each compound over all panel cell lines was calculated (Table 1; Additional file 1; S3: In vitro biological activity).
(§2) From the newly synthesized compounds, eleven compounds were selected by the National Cancer Institute (NCI) Developmental Therapeutics Program (DTP), Bethesda, Maryland, USA for the in vitro anti-proliferative activity evaluation (For further details see supplementary materials).
(§3) NCI In-vitro Cancer Screening is a two-phase procedure that starts with the assessment of all compounds against the sixty NCI cell line panel depicting leukemia, NSCLC, CNS cancer, melanoma, prostate cancer, breast cancer, renal cancer, colon cancer and ovarian cancer cell lines at a single point of 10μM. The output from the single-dose screen is reportable as a mean graph.
(§4) The human tumor cell lines of the cancer screening panel were grown in RPMI 1640 medium containing 5% fetal bovine serum and 2 mM L-glutamine. For a typical screening experiment, cells were inoculated into 96 well microtiter plates in […] at plating densities ranging from 5000 to 40,000 cells/well depending on the doubling time of individual cell lines. After cell inoculation, the microtiter plates were incubated at 37 °C, 5% CO2, 95% air and 100% relative humidity for 24 h prior to addition of experimental drugs. After 24 h, two plates of each cell line were fixed in situ with trichloroacetic acid (TCA), to represent a measurement of the cell population for each cell line at the time of drug addition (Tz). Experimental drugs were solubilized in dimethyl sulfoxide at 400-fold the desired final maximum test concentration and stored frozen prior to use. At the time of drug addition, an aliquot of frozen concentrate was thawed and diluted to twice the desired final maximum test concentration with complete medium containing 50 µg/ml gentamicin. Aliquot of 100 µl of the drug dilution was added to the appropriate microtiter wells already containing 100 µl of medium, resulting in the required final drug concentration (10 µM). Triplicate wells were prepared for each individual dose. Following drug addition, the plates were incubated for an additional 48 h at 37 °C, 5% CO2, 95% air, and 100% relative humidity. For adherent cells, the assay was terminated by the addition of cold TCA. Cells were fixed in situ by the gentle addition of 50 µl of cold 50% (w/v) TCA (final concentration, 10% TCA) and incubated for 60 min at 4 °C. The supernatant was discarded, and the plates were washed five times with tap water and air dried. Sulforhodamine B (SRB) solution (100 µl) at 0.4% (w/v) in 1% acetic acid was added to each well, and plates were incubated for 10 min at room temperature. After staining, unbound dye was removed by washing five times with 1% acetic acid and the plates were air dried. Bound stain was subsequently solubilized with 10 mM trizma base, and the absorbance was read on an automated plate reader at a wavelength of 515 nm. For suspension cells, the methodology was the same except that the assay was terminated by fixing settled cells at the bottom of the wells by gently adding 50 µl of 80% TCA (final concentration, 16% TCA). […]

MCF7 = experiment: NCI-60 single-dose antiproliferative assay (SRB); assay type: cell-based; conditions: Homo sapiens; 10 μM single dose; MCF7, Breast cancer; read-out: Cell Growth inhibition Percent
Description: as §1, §2, §3, §4

HOP-62 = experiment: NCI-60 single-dose antiproliferative assay (SRB); assay type: cell-based; conditions: Homo sapiens; 10 μM single dose; HOP-62, Non-small cell lung cancer; read-out: Cell Growth inhibition Percent
Description: as §1, §2, §3, §4

PC-3 = experiment: NCI-60 single-dose antiproliferative assay (SRB); assay type: cell-based; conditions: Homo sapiens; 10 μM single dose; PC-3, Prostate cancer; read-out: Cell Growth inhibition Percent
Description: as §1, §2, §3, §4

NCI-H23 = experiment: NCI-60 single-dose antiproliferative assay (SRB); assay type: cell-based; conditions: Homo sapiens; 10 μM single dose; NCI-H23, Non-small cell lung cancer; read-out: Cell Growth inhibition Percent
Description: as §1, §2, §3, §4

NCI-H226 = experiment: NCI-60 single-dose antiproliferative assay (SRB); assay type: cell-based; conditions: Homo sapiens; 10 μM single dose; NCI-H226, Non-small cell lung cancer; read-out: Cell Growth inhibition Percent
Description: as §1, §2, §3, §4

MDA-MB-231/ATCC = experiment: NCI-60 single-dose antiproliferative assay (SRB); assay type: cell-based; conditions: Homo sapiens, 10 μM single dose, Breast cancer, read-out: Cell Growth inhibition Percent
Description: as §1, §2, §3, §4

SR = experiment: NCI-60 single-dose antiproliferative assay (SRB); assay type: cell-based; conditions: Homo sapiens, 10 μM single dose, Leukemia, read-out: Cell Growth inhibition Percent
Description: as §1, §2, §3, §4

ACHN = experiment: NCI-60 single-dose antiproliferative assay (SRB); assay type: cell-based; conditions: Homo sapiens, 10 μM single dose, Renal cancer, read-out: Cell Growth inhibition Percent
Description: as §1, §2, §3, §4

LOX IMVI = experiment: NCI-60 single-dose antiproliferative assay (SRB); assay type: cell-based; conditions: Homo sapiens, 10 μM single dose, Melanoma, read-out: Cell Growth inhibition Percent
Description: as §1, §2, §3, §4

KM12 = experiment: NCI-60 single-dose antiproliferative assay (SRB); assay type: cell-based; conditions: Homo sapiens; 10 μM single dose; KM12, Colon cancer; read-out: Cell Growth inhibition Percent
Description: as §1, §2, §3, §4

CAKI-1 = experiment: NCI-60 single-dose antiproliferative assay (SRB); assay type: cell-based; conditions: Homo sapiens; 10 μM single dose; CAKI-1, Renal cancer; read-out: Cell Growth inhibition Percent
Description: as §1, §2, §3, §4

EKVX = experiment: NCI-60 single-dose antiproliferative assay (SRB); assay type: cell-based; conditions: Homo sapiens, 10 μM single dose, Non-small cell lung cancer, read-out: Cell Growth inhibition Percent
Description: as §1, §2, §3, §4

SK-MEL-5 = experiment: NCI-60 single-dose antiproliferative assay (SRB); assay type: cell-based; conditions: Homo sapiens; 10 μM single dose; SK-MEL-5, Melanoma; read-out: Cell Growth inhibition Percent
Description: as §1, §2, §3, §4

OVCAR-4 = experiment: NCI-60 single-dose antiproliferative assay (SRB); assay type: cell-based; conditions: Homo sapiens; 10 μM single dose; OVCAR-4, Ovarian Cancer; read-out: Cell Growth inhibition Percent
Description: as §1, §2, §3, §4

SF-268 = experiment: NCI-60 single-dose antiproliferative assay (SRB); assay type: cell-based; conditions: Homo sapiens; 10 μM single dose; SF-268, CNS cancer; read-out: Cell Growth inhibition Percent
Description: as §1, §2, §3, §4

HOP-92 = experiment: NCI-60 single-dose antiproliferative assay (SRB); assay type: cell-based; conditions: Homo sapiens; 10 μM single dose; HOP-92, Non-small cell lung cancer; read-out: Cell Growth inhibition Percent
Description: as §1, §2, §3, §4

M14 = experiment: NCI-60 single-dose antiproliferative assay (SRB); assay type: cell-based; conditions: Homo sapiens; 10 μM single dose; M14, Melanoma; read-out: Cell Growth inhibition Percent
Description: as §1, §2, §3, §4

SMILES | melting point | inhibition at 10 µM (SNB-75) | inhibition at 10 µM (MCF7) | inhibition at 10 µM (HOP-62) | inhibition at 10 µM (PC-3) | inhibition at 10 µM (NCI-H23) | inhibition at 10 µM (NCI-H226) | inhibition at 10 µM (MDA-MB-231/ATCC) | inhibition at 10 µM (SR) | inhibition at 10 µM (ACHN) | inhibition at 10 µM (LOX IMVI) | inhibition at 10 µM (KM12) | inhibition at 10 µM (CAKI-1) | inhibition at 10 µM (EKVX) | inhibition at 10 µM (SK-MEL-5) | inhibition at 10 µM (OVCAR-4) | inhibition at 10 µM (SF-268) | inhibition at 10 µM (HOP-92) | inhibition at 10 µM (M14)
O=C1Nc2ccccc2C1=CNc1ccc(C(=O)O)cc1 [Compound 4c, 4-{[(2-Oxoindolin-3-ylidene)methyl]amino}benzoic acid] | > 300 °C | 44.3% | 1.59% | 32% | 7.71% | 7.13% | 11.4% | 4.54% | 4.7% | 1.58% | 6.93% | 49.2% | 29.1% | 24.3% | 1.74% | 13.3% | 16.4% | 16.4% | 2.15%
NS(=O)(=O)c1nnc(NC=C2C(=O)Nc3ccccc32)s1 [Compound 4d, 5-{[(2-Oxoindolin-3-ylidene)methyl]amino}-1,3,4-thiadiazole-2-sulfonamide] | 210 to 216 °C | 18.8% | 12.4% | 13.4% | 10.7% | 3.7% | 4.95% | 7.66% | 1.71% | 6.28% | – | 4.63% | 13.5% | 15.8% | 1.52% | 1.55% | – | 11.9% | 6.04%
NS(=O)(=O)N/C=C1/C(=O)Nc2ccccc21 [Compound 5, 3-(sulfamidmethylene)indoline-2-one] | 158 to 160 °C | 16.5% | 6.19% | 9.49% | 5.36% | 13.3% | 8.23% | 5.14% | – | 10.9% | – | 1.51% | 11.2% | 18.8% | 1.04% | – | 2.04% | 11% | 2.01%
O=C1Nc2ccccc2C1=CNc1ccc(CNc2ccc(S(=O)(=O)Nc3ncccn3)cc2)cc1 [Compound 11b, 4-{[4-({[2-Oxoindolin-3-ylidene]methyl}amino)benzyl]amino}-N-(pyrimidin-2-yl)benzenesulfonamide] | – | 16.6% | 37.2% | 11.3% | 14.2% | 17.4% | 16.8% | 8.34% | 42.2% | 16.7% | 8.3% | 77.3% | 48.4% | 16% | 15.2% | 11.5% | 1.02% | 15.4% | 0.4%
O=C(Nc1ccc(NC=C2C(=O)Nc3ccccc32)cc1)Nc1nccs1 [Compound 15c, 1-{4-[((2-Oxoindolin-3-ylidene)methyl)amino]phenyl}-3-(thiazol-2-yl)urea] | – | 66.6% | 77.3% | 62.7% | 31.4% | 62.2% | 70% | 52% | 89.3% | 59.3% | 64.9% | 40.8% | 67.1% | 65.4% | 73.2% | 59.4% | 22.8% | 50.2% | 81.5%

More lines, main results first:

melting point | SMILES | inhibition at 10 µM (SNB-75) | inhibition at 10 µM (MCF7) | inhibition at 10 µM (HOP-62) | inhibition at 10 µM (PC-3) | inhibition at 10 µM (NCI-H23) | inhibition at 10 µM (NCI-H226) | inhibition at 10 µM (MDA-MB-231/ATCC) | inhibition at 10 µM (SR) | inhibition at 10 µM (ACHN) | inhibition at 10 µM (LOX IMVI) | inhibition at 10 µM (KM12) | inhibition at 10 µM (CAKI-1) | inhibition at 10 µM (EKVX) | inhibition at 10 µM (SK-MEL-5) | inhibition at 10 µM (OVCAR-4) | inhibition at 10 µM (SF-268) | inhibition at 10 µM (HOP-92) | inhibition at 10 µM (M14)
195 to 200 °C | NS(=O)(=O)c1ccc(NCc2ccc(NC=C3C(=O)Nc4ccccc43)cc2)cc1 [Compound 11a, 4-{[4-({[2-Oxoindolin-3-ylidene]methyl}amino)benzyl]amino}benzenesulfonamide] | 32.8% | 23% | 30.5% | 7.36% | 12% | 19.1% | 16.5% | 18.7% | 7.22% | 3.3% | 13.9% | 34.7% | 47.4% | 5.94% | 12.6% | 11.3% | – | –
260 to 262 °C | O=C1Nc2ccccc2C1=CNc1ccc(C(=O)C=CNc2nccs2)cc1 [Compound 13c, 3-{[(4-{3-[Thiazol-2-ylamino]acryloyl}phenyl)amino]methylene}indolin-2-one] | – | 28.1% | 12% | 15.3% | 25.9% | 1.09% | 10.7% | 6% | – | 9.06% | 59% | 30.8% | 16.8% | 5.29% | 3.49% | – | 11.4% | –
